From patent publication US7625948B2, “Ester compound and medicinal use thereof” (Japan Tobacco Inc., priority 2002, dated 2009)

Key:
HepG2 cells = test: Test Example 2: inhibition of apolipoprotein B secretion from HepG2 cells, ELISA (also used for metabolites in Test Example 8); assay type: cell-based; conditions: Homo sapiens, 24 hours, apo B in supernatant by ELISA, read-out: Test Example 2 Inhibition of apo B secretion IC50
How it was run: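 HepG2 cells cultured 24 h, then exposed 24 h to compounds or metabolites in medium with 0.5% DMSO. Secreted apo B in supernatant quantified by sandwich ELISA (HRP, ABTS, 405 nm) against purified human apo B standard; % inhibition vs DMSO group, IC50 derived.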

Syrian hamsters = test: Test Example 3: olive oil-loading test (inhibition of fat absorption, plasma TG); assay type: in vivo; conditions: Mesocricetus auratus, po; 3 mg/kg p.o.; plasma TG 4 hours after olive oil; read-out: Test Example 3 Inhibition of fat absorption after olive oil-loading in Hamster Inhibition rate (%)
Protocol: Syrian hamsters (9-11 weeks of age) under non-fasted conditions were used in the test. Blood was collected previously from orbital venous plexus, and a sample was suspended in 0.5% methyl cellulose (vehicle) and the suspension was forced to be administered orally to the hamsters at a dose of 0.3, 1, 3 or 10 mg/2 mL/kg. Only vehicle in the same volume was administered to the control group. Olive oil (2 mL/kg) was forced to be administered orally 30 minutes after the administration of the sample, and blood was collected from orbital venous plexus 4 hours later. Plasma was recovered from the blood, and the amount of triglyceride (TG) in the plasma was determined by automatic analyzer (Hitachi Co.). The data was expressed in terms of ΔTG(mg/dL)=the value at 4th hr minus the value before administration. Inhibition rate (%) was calculated from the data obtained on the basis of the following equation.
Inhibition rate (%)=100×(1 minus ΔTG of sample group/ΔTG of control group).

[1] = molecular target: T1, Microsomal triglyceride transfer protein (MTP) from bovine liver (Bos taurus, UniProt P55156); test: Test Example 1: inhibition of interliposomal triglyceride (TG) transfer activity by MTP (also used for metabolites in Test Example 8); assay type: biochemical; conditions: MTP-mediated 14C-triolein transfer between liposomes, 37° C., one hour; read-out: Test Example 1 MTP inhibition IC50
T1 construct: from tissue; host or cells: bovine liver
T1 sequence (P55156 12-887): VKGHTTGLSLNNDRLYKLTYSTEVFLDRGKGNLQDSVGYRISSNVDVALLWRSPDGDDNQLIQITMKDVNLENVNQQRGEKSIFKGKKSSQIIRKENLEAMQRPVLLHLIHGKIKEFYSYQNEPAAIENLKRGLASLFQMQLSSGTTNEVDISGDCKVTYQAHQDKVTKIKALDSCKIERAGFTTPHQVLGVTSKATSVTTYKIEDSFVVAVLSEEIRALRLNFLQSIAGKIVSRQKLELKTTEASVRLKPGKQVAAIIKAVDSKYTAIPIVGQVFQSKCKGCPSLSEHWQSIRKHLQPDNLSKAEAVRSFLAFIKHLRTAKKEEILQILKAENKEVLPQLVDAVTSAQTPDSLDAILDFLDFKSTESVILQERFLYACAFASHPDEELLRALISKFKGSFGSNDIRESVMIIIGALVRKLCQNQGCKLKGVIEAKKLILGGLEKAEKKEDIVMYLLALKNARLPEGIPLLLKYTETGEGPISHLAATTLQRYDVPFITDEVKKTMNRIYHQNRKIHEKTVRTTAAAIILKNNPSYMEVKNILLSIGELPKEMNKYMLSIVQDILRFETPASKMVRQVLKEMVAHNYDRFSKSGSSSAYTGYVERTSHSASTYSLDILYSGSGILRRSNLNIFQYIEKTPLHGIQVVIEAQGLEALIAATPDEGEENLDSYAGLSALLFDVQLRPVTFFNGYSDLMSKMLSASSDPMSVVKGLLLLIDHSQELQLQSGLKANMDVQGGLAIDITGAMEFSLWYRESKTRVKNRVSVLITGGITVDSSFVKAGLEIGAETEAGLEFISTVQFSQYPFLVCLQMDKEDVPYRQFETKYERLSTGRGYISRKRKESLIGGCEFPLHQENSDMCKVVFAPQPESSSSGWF
T1 sequence (P05307 21-510 partner): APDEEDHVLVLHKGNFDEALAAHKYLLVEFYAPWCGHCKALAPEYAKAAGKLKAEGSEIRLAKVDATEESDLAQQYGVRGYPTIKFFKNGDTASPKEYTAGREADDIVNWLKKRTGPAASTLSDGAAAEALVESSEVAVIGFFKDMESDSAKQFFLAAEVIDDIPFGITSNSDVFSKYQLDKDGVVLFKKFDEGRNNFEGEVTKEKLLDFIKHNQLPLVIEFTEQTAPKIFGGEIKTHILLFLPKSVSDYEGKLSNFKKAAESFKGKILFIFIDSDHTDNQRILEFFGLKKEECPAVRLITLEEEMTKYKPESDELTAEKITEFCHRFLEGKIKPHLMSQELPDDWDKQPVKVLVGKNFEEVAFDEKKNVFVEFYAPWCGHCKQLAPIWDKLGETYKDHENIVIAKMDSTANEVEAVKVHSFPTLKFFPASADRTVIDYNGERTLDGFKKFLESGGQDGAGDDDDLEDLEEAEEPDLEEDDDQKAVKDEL
Protocol: Inhibition of Interliposomal Triglyceride (TG) Transfer Activity by MTP
Microsomal triglyceride transfer protein (MTP) from bovine liver was partially purified in such a way described below. A buffer (50 mM Tris, 250 mM sucrose, 1 mM EDTA, 0.02% NaN3 (pH 7.4)) for making a homogenate preparation was added to bovine liver, and the mixture was homogenated under ice-cooling, then centrifuged at 10,000×g (4° C., 30 minutes). The supernatant was adjusted to pH 5.1 with hydrochloric acid, and stirred for 30 minutes. The solution was further centrifuged at 10,000×g (4° C., 30 minutes), and 1 mM Tris buffer was added to the precipitated residue, and the mixture was adjusted to pH 8.6 with sodium hydroxide. After addition of 2.7M ammonium sulfate solution, the mixture was stirred for 30 minutes, then centrifuged at 10,000×g (4° C., 40 minutes). The resulting supernatant was served as a crude extraction fraction of MTP and stored at −80° C. under freezing. In its practical use, the crude extraction fraction of MTP was purified by column chromatography on diethylaminoethyl (DEAE) Sepharose using FPLC (Fast Performance Liquid Chromatography) system, and the purified MTP was used for the test.
Small unilamellar-vesicle (SUV) liposome (donor, 0.25 mol % triolein, 5 mol % cardiolipin) labeled with ^14C-triolein and non-labeled SUV liposome (acceptor, 0.25 mol % triolein) were prepared. A fixed amount of donor and acceptor, and MTP were mixed with a sample dissolved in DMSO or with DMSO. The mixture was incubated in a 15 mM Tris hydrochloride buffer (pH 7.4) containing 40 mM sodium chloride, 1 mM EDTA (ethylenediaminetetraacetic acid), 0.02% NaN3 and 0.5% bovine serum albumin at 37° C. for one hour. After completion of the incubation, a suspension of DEAE cellulose (50% v/v) in 15 mM Tris hydrochloride buffer (pH 7.4) was added to the above solution, and the mixture was centrifuged to separate the donor and the acceptor. The radioactivity in the acceptor was measured by liquid scintillation counter. The value obtained by subtracting the radioactivity in the blank from the amount of radioactivity in the acceptor of a DMSO group was determined as MTP-mediated TG transfer activity, and it was compared with the value obtained by subtracting the radioactivity in the blank from the radioactivity in a sample group. The blank was prepared by adding 15 mM Tris-HCl buffer (pH 7.4) in place of MTP. Inhibition rate (%) was calculated from the values obtained according to the following equation.
Inhibition rate (%)=100×(1 minus ((radioactivity of sample group minus radioactivity of blank group)/(radioactivity of DMSO group minus radioactivity of blank group))).
50% Inhibition rate (IC50) was determined on the basis of the above equation.
Inhibitory Activity on MTP and apo B Secretion Inhibition by Metabolites
In a similar manner to Test Examples 1 and 2, the activity of metabolites was assayed.

| SMILES | IC50 (HepG2 cells) | inhibition in vivo at 3 mg/kg (Syrian hamsters) | IC50 [1] |
| --- | --- | --- | --- |
| CCNC(=O)C(COC(=O)Cc1ccc(NC(=O)c2ccccc2-c2ccc(C(F)(F)F)cc2)c(C(=O)N(CC)CC)c1)(C(=O)NCC)c1ccccc1 [Example 2-8] | 0.99 nM | 89% | – |
| CCOC(=O)C(COC(=O)Cc1ccc(NC(=O)c2ccccc2-c2ccc(C(F)(F)F)cc2)c(C(=O)N(C)CC)c1)(C(=O)OCC)c1ccccc1 [Example 2-13] | 0.74 nM | 70% | – |
| CCNC(=O)C(COC(=O)Cc1ccc(NC(=O)c2ccccc2-c2ccc(C(F)(F)F)cc2)c(C(=O)N(C)CC)c1)(C(=O)NCC)c1ccccc1 [Example 2-14] | 1.2 nM | 80% | – |
| O=C(OCCC1(C(=O)NCC(F)(F)F)c2ccccc2-c2ccccc21)c1ccc(NC(=O)c2ccccc2-c2ccc(C(F)(F)F)cc2)cc1 [Example 6, 4-[(4′-Trifluoromethylbiphenyl-2-carbonyl)amino]benzoic acid 2-[9-(2,2,2-trifluoroethylcarbamoyl)-9H-fluoren-9-yl]ethyl ester] | 58.3 nM | – | 3.47 nM |
| O=C(Nc1ccccc1-c1ccccc1)c1ccc(C(=O)OCCC2(C(=O)NCC(F)(F)F)c3ccccc3-c3ccccc32)cc1 [Example 6-3] | 510 nM | – | 5.2 nM |
| O=C(OCCC(C(=O)NCC(F)(F)F)(c1ccccc1)c1ccccc1)c1ccc(NC(=O)c2ccccc2-c2ccc(C(F)(F)F)cc2)cc1 [Example 6-8] | 630 nM | – | 50 nM |
| O=C(OCCC(C(=O)NCC(F)(F)F)c1ccccc1)c1ccc(NC(=O)c2ccccc2-c2ccc(C(F)(F)F)cc2)cc1 (stereo not shown) [Example 6-10] | 870 nM | – | 22 nM |
| CCOC(=O)C(CCOC(=O)c1ccc(NC(=O)c2ccccc2-c2ccc(C(F)(F)F)cc2)cc1)(C(=O)OCC)c1ccccc1 [Example 6-14] | 87 nM | – | 6.3 nM |
| CCOC(=O)C(CCOC(=O)c1ccc(NC(=O)c2ccccc2-c2ccc(C(F)(F)F)cc2)c(C)c1)(C(=O)OCC)c1ccccc1 [Example 6-15] | 57 nM | – | 2 nM |
| CCOC(=O)C(CCOC(=O)c1ccc(NC(=O)c2ccccc2-c2ccc(C(F)(F)F)cc2)cc1Cl)(C(=O)OCC)c1ccccc1 [Example 6-16] | 170 nM | – | 2.9 nM |
| CCOC(=O)C(CCOC(=O)c1ccc(OC(=O)c2ccccc2-c2ccc(C(F)(F)F)cc2)cc1)(C(=O)OCC)c1ccccc1 [Example 6-17] | 420 nM | – | 2.3 nM |
| CCNC(=O)C(CCOC(=O)c1ccc(NC(=O)c2ccccc2-c2ccc(C(F)(F)F)cc2)cc1)(C(=O)NCC)c1ccccc1 [Example 6-19] | 35 nM | – | 3.2 nM |
| CCNC(=O)C(CCOC(=O)c1ccc(OC(=O)c2ccccc2-c2ccc(C(F)(F)F)cc2)cc1)(C(=O)NCC)c1ccccc1 [Example 6-21] | 920 nM | – | 9.8 nM |
| O=C(N[C@H]1CC[C@H](C(=O)OCCC2(C(=O)NCC(F)(F)F)c3ccccc3-c3ccccc32)CC1)c1ccccc1-c1ccc(C(F)(F)F)cc1 [Example 7, Trans-4-[(4′-trifluoromethylbiphenyl-2-carbonyl)amino]cyclohexanecarboxylic acid 2-[9-(2,2,2-trifluoroethylcarbamoyl)-9H-fluoren-9-yl]ethyl ester] | 60 nM | – | 4.97 nM |
| O=C(N[C@H]1CC[C@@H](C(=O)OCCC2(C(=O)NCC(F)(F)F)c3ccccc3-c3ccccc32)CC1)c1ccccc1-c1ccc(C(F)(F)F)cc1 [Example 7-2] | 26 nM | – | 2.46 nM |
| CCOC(=O)C(CCOC(=O)C1CCC(NC(=O)c2ccccc2-c2ccc(C(F)(F)F)cc2)CC1)(C(=O)OCC)c1ccccc1 (stereo not shown) [Example 7-5] | 237 nM | – | 16.2 nM |
| CCOC(=O)C(COC(=O)CN1CCC(NC(=O)c2ccccc2-c2ccc(C(F)(F)F)cc2)CC1)(C(=O)OCC)c1ccccc1 [Example 8, 2-Phenyl-2-(2-{4-[(4′-trifluoromethylbiphenyl-2-carbonyl)amino]piperidin-1-yl}acetoxymethyl)malonic acid diethyl ester] | 595 nM | – | 33 nM |
| CCOC(=O)C(COC(=O)Cn1ccc2c(NC(=O)c3ccccc3-c3ccc(C(F)(F)F)cc3)cccc21)(C(=O)OCC)c1ccccc1 [Example 9, 2-Phenyl-2-(2-{4-[(4′-trifluoromethylbiphenyl-2-carbonyl)amino]indol-1-yl}acetoxymethyl)malonic acid diethyl ester] | 260 nM | – | 11 nM |
| CCOC(=O)C(COC(=O)Cn1c(C)nc2c(NC(=O)c3ccccc3-c3ccc(C(F)(F)F)cc3)cccc21)(C(=O)OCC)c1ccccc1 [Example 9-2, 2-(2-{2-methyl-4-[(4′-trifluoromethylbiphenyl-2-carbonyl}amino]benzimidazol-1-yl}acetoxymethyl)-2-phenyl-malonic acid diethyl ester] | 450 nM | – | 4.2 nM |
| CCOC(=O)C(COC(=O)Cn1cnc2c(NC(=O)c3ccccc3-c3ccc(C(F)(F)F)cc3)cccc21)(C(=O)OCC)c1ccccc1 [Example 9-11] | 210 nM | – | 20 nM |
